Starred links: 1 amine or outer side, 2 acyl side, 3 side chain; linkers in the order of their positions; H or OH if unused. Positions of bridges follow the written chain, without caps; N, C: chain ends. Non-standard residues stand in square brackets, D forms with d. Residues, ends and D or L forms follow the SMILES beside them. Triazole bridges read from a SMILES are 1,4-linked. NMeW = CN[C@@H](Cc1c[nH]c2ccccc12)C(=O)O; Lys(N3) = [N-]=[N+]=NCCCC[C@H](N)C(=O)O; Phe(4-NH2) = Nc1ccc(C[C@H](N)C(=O)O)cc1; Orn(N3) = [N-]=[N+]=NCCC[C@H](N)C(=O)O; NMeR = CN[C@@H](CCCNC(=N)N)C(=O)O; hArg = N=C(N)NCCCC[C@H](N)C(=O)O; R8 = C=CCCCCCC[C@@](C)(N)C(=O)O; Aad = N[C@@H](CCCC(=O)O)C(=O)O; Suc = O=C(CCC(=O)[*:2])[*:1]; S5 = C=CCCC[C@](C)(N)C(=O)O; Hpra = C#CCC[C@H](N)C(=O)O; dPra = C#CC[C@@H](N)C(=O)O; Nle = CCCC[C@H](N)C(=O)O; Pra = C#CC[C@H](N)C(=O)O; Dab = NCC[C@H](N)C(=O)O
Legend:
Type in all cases: cell-based
human recombinant MC5R = target: T1, human recombinant MC5R (Homo sapiens, UniProt P33032); experiment: Ca2+ signalling functional assay, MC5R stable cell line (CHO-K1/Ga15); details: calcium flux functional assay
T1 construct: host or cells: CHO-K1/Ga15
Procedure: The Ca^2+ signalling functional assay was performed on a human recombinant MC5R stable cell line (CHO-K1/Ga15, GenScript). The cells were cultured at 37° C. and 5% C02 with culture medium (90% Ham's F-12K (Kaighn's)+10% FBS+400 μg/mL G418+100 μg/mL Hygromycin B). Cells were washed with PBS and then detached by incubation with 0.05% (w/v) Trypsin EDTA at 37° C. for 2 to 5 mins. Detached cells were suspended in Ham's F-12K (Kaighn's) (containing 10% FBS) and a 50 μL cell suspension is seeded into each well of a 384-well assay plate at a density of 15,000 cells/well. Cells were allowed to settle overnight at 37° C., 5% CO2. […] Then, 100 nL of compounds were transferred to the compound plate by the Echo machine. Thirty microliter assay buffer was added to the compounds plate and then shaken for 20-40 minutes. The plates were placed on the FLIPR and 15 μL of the compound was added to each well, then calcium flux signal was measured.

human recombinant MC1R = target: T2, human recombinant MC1R (Homo sapiens, UniProt Q01726); experiment: cyclic AMP (cAMP) functional assay, MC1R stable cell line (CHO-K1); details: cAMP functional assay;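 further: cells with test compound for 60 min at room temperature in buffer containing IBMX, then cAMP quantified by Eu-cAMP tracer and ULight anti-cAMP detection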
T2 construct: host or cells: CHO-K1
Procedure: The cyclic AMP (cAMP) functional assay was performed on a human recombinant MC1R stable cell line (CHO-K1, GenScript). The cells were cultured at 37° C. and 5% CO2 with culture medium (90% Ham's F-12K (Kaighn's)+10% FBS+400 μg/mL G418). […] Then, 100 nL of compounds were transferred to the assay plate by the Echo machine. Cells were washed with PBS and then detached by incubation with 0.05% (w/v) Trypsin EDTA at 37° C. for 2 to 5 mins. Cells were collected with stimulation buffer (1×HBSS with 5 mM HEPES+0.2 mM IBMX+0.1% BSA) and 10 ul of cells (the density of 2,500 cells/well) solution was transferred to assay plate, centrifuged at 600 rpm for 3 min and then incubated with compounds at room temperature for 60 min. After that, 5 μL 4×Eu-cAMP tracer solution and 5 μL 4×ULight™-anti-cAMP solution was added into the cells, centrifuged at 600 rpm for 3 min and incubated for 60 min. The cAMP signal was detected with Envision® Multimode Plate Reader (PerkinElmer).

human recombinant MC4R = target: T3, human recombinant MC4R (Homo sapiens, UniProt P32245); experiment: Ca2+ signalling functional assay, MC4R stable cell line (CHO-K1/Gα15); details: calcium flux functional assay
T3 construct: host or cells: CHO-K1/Gα15
Procedure: The Ca^2+ signalling functional assay was performed on a human recombinant MC4R stable cell line (CHO-K1/Gα15, GenScript). The cells were cultured at 37° C. and 5% CO2 with culture medium (90% Ham's F-12K (Kaighn's)+10% FBS+8 μg/mL Puromycin+100 μg/mL Hygromycin B). Cells were washed with PBS and then detached by incubation with 0.05% (w/v) Trypsin EDTA at 37° C. for 2-5 mins. Detached cells were suspended in Ham's F-12K (Kaighn's) (containing 10% FBS) and a 50 μL cell suspension was seeded into each well of a 384-well assay plate at a density of 15,000 cells/well. Cells were allowed to settle overnight at 37° C., 5% CO2. The next day, the assay plate was centrifuged and the media was replaced with dye (1×) in assay buffer (containing HBSS, HEPES 20 mM and probenecid 1 mM) and incubated for 1 h at 37° C. […] Then, 100 nL of compounds were transferred to the compound plate by the Echo machine. 30 μL assay buffer was added to the compounds plate and then shaken for 20 to 40 minutes. The plates were placed on the FLIPR and 15 μL of the compound was added to each well, then calcium flux signal was measured.

human recombinant MC3R = target: T4, human recombinant MC3R (Homo sapiens, UniProt P41968); experiment: Ca2+ signalling functional assay, MC3R stable cell line (CHO-K1/Gα15); details: calcium flux functional assay
T4 construct: host or cells: CHO-K1/Gα15
T4 sequence (P41968 whole entry): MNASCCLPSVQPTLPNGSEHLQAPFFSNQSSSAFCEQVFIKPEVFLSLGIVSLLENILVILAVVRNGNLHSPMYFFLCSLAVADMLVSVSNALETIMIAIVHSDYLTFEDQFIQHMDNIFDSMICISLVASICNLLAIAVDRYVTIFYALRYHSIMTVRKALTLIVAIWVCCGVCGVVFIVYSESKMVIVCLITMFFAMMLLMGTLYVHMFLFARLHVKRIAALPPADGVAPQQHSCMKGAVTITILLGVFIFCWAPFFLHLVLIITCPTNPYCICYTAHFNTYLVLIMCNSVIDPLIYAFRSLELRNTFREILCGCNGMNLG
Procedure: The Ca^2+ signalling functional assay was performed on a human recombinant MC3R stable cell line (CHO-K1/Gα15, GenScript). The cells were cultured at 37° C. and 5% CO2 with culture medium (90% Ham's F-12K (Kaighn's)+10% FBS+200 μg/mL Zeocin+100 μg/mL Hygromycin B). Cells were washed with PBS and then detached by incubation with 0.05% (w/v) Trypsin EDTA at 37° C. for 2-5 mins. Detached cells were suspended in Ham's F-12K (Kaighn's) (containing 10% FBS) and a 50 μL cell suspension was seeded into each well of a 384-well assay plate at a density of 10,000 cells/well. Cells were allowed to settle overnight at 37° C., 5% CO2. […] The compounds and reference compound ACTH were diluted in 4 folds starting from 50 uM. Then, 500 nL of compounds were transferred to the compound plate by the Echo machine. 30 uL assay buffer was added into the compounds plate and then shaken for 20-40 minutes. The plates were then placed on the FLIPR Tetra High-Throughput Cellular Screening System (FLIPR®, Molecular Devices) and 15 μL of the compound was added to each well, then calcium flux signal was measured.

T2 sequence (Q01726 whole entry): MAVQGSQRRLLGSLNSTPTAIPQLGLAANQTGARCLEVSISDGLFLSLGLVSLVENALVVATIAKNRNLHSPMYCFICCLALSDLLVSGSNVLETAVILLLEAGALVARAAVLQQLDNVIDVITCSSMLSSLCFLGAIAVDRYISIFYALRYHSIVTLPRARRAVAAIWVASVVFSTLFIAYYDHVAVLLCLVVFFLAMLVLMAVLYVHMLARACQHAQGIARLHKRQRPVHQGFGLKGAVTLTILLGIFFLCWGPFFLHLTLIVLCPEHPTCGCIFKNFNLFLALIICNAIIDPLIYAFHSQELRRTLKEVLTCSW
T3 sequence (P32245 whole entry): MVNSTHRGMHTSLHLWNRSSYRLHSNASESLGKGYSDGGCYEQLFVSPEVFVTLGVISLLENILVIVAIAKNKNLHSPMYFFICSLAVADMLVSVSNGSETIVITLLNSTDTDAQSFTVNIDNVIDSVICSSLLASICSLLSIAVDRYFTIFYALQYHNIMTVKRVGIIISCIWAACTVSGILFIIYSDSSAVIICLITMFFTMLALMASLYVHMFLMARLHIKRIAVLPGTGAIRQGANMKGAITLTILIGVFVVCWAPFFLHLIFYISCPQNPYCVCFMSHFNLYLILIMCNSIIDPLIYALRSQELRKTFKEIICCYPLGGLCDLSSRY
T1 sequence (P33032 whole entry): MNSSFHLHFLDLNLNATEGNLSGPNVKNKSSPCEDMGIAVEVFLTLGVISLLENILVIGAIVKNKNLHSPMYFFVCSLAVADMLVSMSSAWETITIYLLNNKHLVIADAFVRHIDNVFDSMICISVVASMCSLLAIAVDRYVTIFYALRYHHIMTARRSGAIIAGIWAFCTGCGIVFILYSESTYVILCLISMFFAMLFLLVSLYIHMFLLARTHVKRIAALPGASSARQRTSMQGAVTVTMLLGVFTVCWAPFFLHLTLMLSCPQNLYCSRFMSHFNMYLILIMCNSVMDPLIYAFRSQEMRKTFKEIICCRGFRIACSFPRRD

Compound | IC50 (human recombinant MC1R) [nM] | also measured
CC(=O)N[C@@H](CCC(=O)O)C(=O)N[C@@H](Cc1c[nH]cn1)C(=O)N[C@@H](Cc1ccccc1)C(=O)N[C@@H](CCCNC(=N)N)C(=O)N[C@@H](Cc1c[nH]c2ccccc12)C(=O)NCC(=O)N[C@@H](CCCCN)C(=O)N1CCC[C@H]1C(=O)N[C@H](C(N)=O)C(C)C [KR-004] |  | IC50 (human recombinant MC5R): > 10000 nM
CSCC[C@H](NC(=O)[C@H](CO)NC(=O)[C@H](Cc1ccc(O)cc1)NC(=O)[C@H](CO)NC(C)=O)C(=O)N[C@@H](CCC(=O)O)C(=O)N[C@@H](Cc1c[nH]cn1)C(=O)N[C@@H](Cc1ccccc1)C(=O)N[C@@H](CCCNC(=N)N)C(=O)N[C@@H](Cc1c[nH]c2ccccc12)C(=O)NCC(=O)N[C@@H](CCCCN)C(=O)N1CCC[C@H]1C(N)=O [KR-005] | 0.093 | IC50 (human recombinant MC4R): 67.1 nM
CSCC[C@H](NC(=O)[C@H](CO)NC(=O)[C@H](Cc1ccc(O)cc1)NC(=O)[C@H](CO)NC(C)=O)C(=O)N[C@@H](CCC(=O)O)C(=O)N[C@@H](Cc1c[nH]cn1)C(=O)N[C@@H](Cc1ccccc1)C(=O)N[C@@H](CCCNC(=N)N)C(=O)N[C@@H](Cc1c[nH]c2ccccc12)C(=O)NCC(=O)N[C@@H](CCCCN)C(N)=O [KR-006] | 0.11 | 
CCCC[C@H](NC(C)=O)C(=O)N[C@H]1CCCCn2cc(nn2)C[C@@H](C(N)=O)NC(=O)[C@H](Cc2c[nH]c3ccccc23)NC(=O)[C@H](CCCNC(=N)N)NC(=O)[C@H](Cc2ccccc2)NC(=O)[C@H](Cc2c[nH]cn2)NC1=O [KR-008, Ac-Nle-[Lys(N3)-His-Phe-Arg-Trp-Pra]-NH2] (Ac-[Nle][Lys(N3)]HFRW[Pra]-NH2; triazole 2-7) |  | IC50 (human recombinant MC5R): > 10000 nM
CC(=O)N[C@H]1CCCCn2cc(nn2)C[C@@H](C(N)=O)NC(=O)CNC(=O)[C@H](Cc2c[nH]c3ccccc23)NC(=O)[C@H](CCCNC(=N)N)NC(=O)[C@H](Cc2ccccc2)NC(=O)[C@H](Cc2c[nH]cn2)NC(=O)[C@H](CCC(=O)O)NC1=O [KR-010, Ac-[Lys(N3)-Glu-His-Phe-Arg-Trp-Gly-Pra]-NH2] (Ac-[Lys(N3)]EHFRWG[Pra]-NH2; triazole 1-8) |  | IC50 (human recombinant MC5R): > 10000 nM
N=C(N)NCCC[C@@H]1NC(=O)[C@H](Cc2ccccc2)NC(=O)[C@H](Cc2c[nH]cn2)NC(=O)[C@H](CCC(=O)O)NC(=O)CSC[C@@H](C(N)=O)NC(=O)CNC(=O)[C@H](Cc2c[nH]c3ccccc23)NC1=O [KR-012, Cyclo(-Ac-Glu-His-Phe-Arg-Trp-Gly-Cys)-NH2] ({CH2CO}-EHFRWGC-NH2; thioether N-7) |  | MC5R IC50 (human recombinant MC5R): Not fit
CC(=O)N[C@]1(C)CCCCCCC=CCCC[C@@](C)(C(N)=O)NC(=O)CNC(=O)[C@H](Cc2c[nH]c3ccccc23)NC(=O)[C@H](CCCNC(=N)N)NC(=O)[C@H](Cc2ccccc2)NC(=O)[C@H](Cc2c[nH]cn2)NC(=O)[C@H](CCC(=O)O)NC1=O [KR-015, Ac-R8-Glu-His-Phe-Arg-Trp-Gly-S5-NH2] (Ac-[R8]EHFRWG[S5]-NH2; staple 1-8) |  | IC50 (human recombinant MC5R): > 10000 nM
CSCC[C@H](NC(=O)[C@H](CO)NC(=O)[C@H](Cc1ccc(O)cc1)NC(=O)[C@H](CO)NC(C)=O)C(=O)N[C@@H](CCC(=O)O)C(=O)N[C@@H](Cc1c[nH]cn1)C(=O)N(C)[C@H](Cc1ccccc1)C(=O)N[C@@H](CCCNC(=N)N)C(=O)N[C@@H](Cc1c[nH]c2ccccc12)C(=O)NCC(=O)N[C@@H](CCCCN)C(=O)N1CCC[C@H]1C(=O)N[C@H](C(N)=O)C(C)C [KR-025, Ac-Ser-Tyr-Ser-Met-Glu-His-(D-NMePhe)-Arg-Trp-Gly-Lys-Pro-Val-NH2] |  | IC50 (human recombinant MC3R): > 50000 nM
CCCC[C@H](NC(C)=O)C(=O)N1CCC(=O)NCC[C@@H](C(=O)N[C@@H](Cc2c[nH]c3ccccc23)C(N)=O)NC(=O)[C@H](CCCNC(=N)N)NC(=O)[C@@H](Cc2ccccc2)NC(=O)[C@H](Cc2c[nH]cn2)NC(=O)C1 [KR-027, Ac-Nle-cyc(NGlu-His-DPhe-Arg-Dab)-Trp-NH2] |  | IC50 (human recombinant MC4R): 84.1 nM
CCCC[C@H](NC(C)=O)C(=O)N[C@H]1CCNC(=O)CCC(=O)NCC[C@@H](C(N)=O)NC(=O)[C@H](Cc2c[nH]c3ccccc23)NC(=O)[C@H](CCCNC(=N)N)NC(=O)[C@@H](Cc2ccccc2)NC(=O)[C@H](Cc2c[nH]cn2)NC1=O [KR-041, Ac-Nle-[Dab-His-DPhe-Arg-Trp-Dab] Linker: succinic acid-NH2] (Ac-[Nle][Dab]H[dF]RW[Dab]-NH2; linker 2-7 via Suc (inferred)) | 0.04 | 
CCCC[C@H](NC(C)=O)C(=O)N[C@H]1CCn2cc(nn2)COCc2cn(nn2)CC[C@@H](C(N)=O)NC(=O)[C@H](Cc2c[nH]c3ccccc23)NC(=O)[C@H](CCCNC(=N)N)NC(=O)[C@@H](Cc2ccccc2)NC(=O)[C@H](Cc2c[nH]cn2)NC1=O [KR-042, Ac-Nle-[Dab(N3)-His-DPhe-Arg-Trp-Dab(N3)] linkr: 3,3′-Oxybis[1-propyne]-NH2] | 0.16 | 
CCCC[C@H](NC(C)=O)C(=O)N[C@H]1CCCCn2cc(nn2)C[C@@H](C(N)=O)NC(=O)[C@H](Cc2c[nH]c3ccccc23)NC(=O)[C@H](CCCNC(=N)N)NC(=O)[C@@H](Cc2ccccc2)NC(=O)[C@H](Cc2ccc(N)cc2)NC1=O [KR-047, Ac-Nle-[Lys(N3)-Phe(4-NH2)-DPhe-Arg-Trp-Pra]-NH2] (Ac-[Nle][Lys(N3)][Phe(4-NH2)][dF]RW[Pra]-NH2; triazole 2-7) | > 50 | 
CCCC[C@H](NC(C)=O)C(=O)N[C@H]1CCCCn2cc(nn2)C[C@@H](C(=O)N[C@@H](CCCC(N)=O)C(N)=O)NC(=O)[C@H](Cc2c[nH]c3ccccc23)NC(=O)[C@H](CCCNC(=N)N)NC(=O)[C@@H](Cc2ccccc2)NC(=O)[C@H](Cc2c[nH]cn2)NC1=O [KR-057, Ac-Nle-[Lys(N3)-His-DPhe-Arg-Trp-Pra]-Hgln-NH2] (Ac-[Nle][Lys(N3)]H[dF]RW[Pra][Aad](NH2)-NH2; triazole 2-7) | 0.024 | 
CCCC[C@H](NC(C)=O)C(=O)N[C@H]1CCCCn2cc(nn2)C[C@H](C(=O)N[C@@H](CCCCN)C(N)=O)NC(=O)[C@H](Cc2c[nH]c3ccccc23)NC(=O)[C@H](CCCNC(=N)N)NC(=O)[C@@H](Cc2ccccc2)NC(=O)[C@H](Cc2c[nH]cn2)NC1=O [KR-070, Ac-Nle-[Lys(N3)-His-DPhe-Arg-Trp-DPra]-Lys-NH2] (Ac-[Nle][Lys(N3)]H[dF]RW[dPra]K-NH2; triazole 2-7) |  | IC50 (human recombinant MC4R): 84.1 nM
Ac-EHFRWGKP-NH2 [KR-007] |  | IC50 (human recombinant MC5R): > 10000 nM

Continued, in another order:

IC50 (human recombinant MC1R) [nM] | Compound | also measured
0.88 | CSCC[C@H](NC(=O)[C@H](CO)NC(=O)[C@H](Cc1ccc(O)cc1)NC(=O)[C@H](CO)NC(C)=O)C(=O)N[C@@H](CCC(=O)O)C(=O)N[C@@H](Cc1c[nH]cn1)C(=O)N[C@@H](Cc1ccccc1)C(=O)N[C@@H](CCCNC(=N)N)C(=O)N(C)[C@@H](Cc1c[nH]c2ccccc12)C(=O)NCC(=O)N[C@@H](CCCCN)C(=O)N1CCC[C@H]1C(=O)N[C@H](C(N)=O)C(C)C [KR-024] | 
0.081 | CCCC[C@H](NC(C)=O)C(=O)N[C@H]1CSCc2cccc(c2)CSC[C@@H](C(=O)N[C@@H](Cc2c[nH]c3ccccc23)C(N)=O)NC(=O)[C@H](CCCNC(=N)N)NC(=O)[C@@H](Cc2ccccc2)NC(=O)[C@H](Cc2c[nH]cn2)NC1=O [KR-032, Ac-Nle-cyc(Cys-His-DPhe-Arg-Cys)-Trp, L: m-xylene-NH2] | 
0.88 | CCCC[C@@H]1NC(=O)CSC[C@@H](C(N)=O)NC(=O)[C@H](CCCCN)NC(=O)CNC(=O)[C@H](Cc2c[nH]c3ccccc23)NC(=O)[C@H](CCCNC(=N)N)NC(=O)[C@H](Cc2ccccc2)NC(=O)[C@H](Cc2c[nH]cn2)NC(=O)[C@H](CCC(=O)O)NC1=O [KR-036] ({CH2CO}-[Nle]EHFRWGKC-NH2; thioether N-9) | 
0.024 | CCCC[C@H](NC(C)=O)C(=O)N[C@H]1CCCCn2cc(nn2)C[C@@H](C(=O)N[C@@H](CCCCN)C(N)=O)NC(=O)[C@H](Cc2c[nH]c3ccccc23)NC(=O)[C@H](CCCNC(=N)N)NC(=O)[C@@H](Cc2ccccc2)NC(=O)[C@H](Cc2c[nH]cn2)NC1=O [KR-037, Ac-Nle-[Lys(N3)-His-DPhe-Arg-Trp-Pra]-Lys-NH2] (Ac-[Nle][Lys(N3)]H[dF]RW[Pra]K-NH2; triazole 2-7) | 
0.081 | CCCC[C@H](NC(C)=O)C(=O)N[C@H]1CCCCn2cc(nn2)C[C@@H](C(N)=O)NC(=O)[C@H](Cc2c[nH]c3ccccc23)N(C)C(=O)[C@H](CCCNC(=N)N)N(C)C(=O)[C@@H](Cc2ccccc2)NC(=O)[C@H](Cc2c[nH]cn2)NC1=O [KR-050, Ac-Nle-[Lys(N3)-His-DPhe-NMeArg-NMeTrp-Pra]-NH2] (Ac-[Nle][Lys(N3)]H[dF][NMeR][NMeW][Pra]-NH2; triazole 2-7) | 
0.093 | CCCC[C@H](NC(C)=O)C(=O)N[C@H]1CCCCn2cc(nn2)C[C@@H](C(=O)N[C@@H](CCCCN)C(N)=O)NC(=O)[C@H](Cc2c[nH]c3ccccc23)NC(=O)[C@H](CCCCNC(=N)N)NC(=O)[C@@H](Cc2ccccc2)NC(=O)[C@H](Cc2c[nH]cn2)NC1=O [KR-054, Ac-Nle-[Lys(N3)-His-DPhe-HArg-Trp-Pra]-Lys-NH2] (Ac-[Nle][Lys(N3)]H[dF][hArg]W[Pra]K-NH2; triazole 2-7) | 
0.11 | CCCC[C@H](NC(C)=O)C(=O)N[C@H]1Cc2cn(nn2)CCCC[C@@H](C(=O)N[C@@H](CCCCN)C(N)=O)NC(=O)[C@H](Cc2c[nH]c3ccccc23)NC(=O)[C@H](CCCNC(=N)N)NC(=O)[C@@H](Cc2ccccc2)NC(=O)[C@H](Cc2c[nH]cn2)NC1=O [KR-067, Ac-Nle-[Pra-His-DPhe-Arg-Trp-Lys(N3)]-Lys-NH2] (Ac-[Nle][Pra]H[dF]RW[Lys(N3)]K-NH2; triazole 2-7) | 
0.04 | CCCC[C@H](NC(C)=O)C(=O)N[C@H]1CCCn2cc(nn2)CC[C@@H](C(=O)N[C@@H](CCCCN)C(N)=O)NC(=O)[C@H](Cc2c[nH]c3ccccc23)NC(=O)[C@H](CCCNC(=N)N)NC(=O)[C@@H](Cc2ccccc2)NC(=O)[C@H](Cc2c[nH]cn2)NC1=O [KR-068, Ac-Nle-[Orn(N3)-His-DPhe-Arg-Trp-Hpra]-Lys-NH2] (Ac-[Nle][Orn(N3)]H[dF]RW[Hpra]K-NH2; triazole 2-7) | IC50 (human recombinant MC5R): 40.3 nM

— patent US20260152527A1, “NOVEL MELANOCORTIN ANALOGS” (priority 2022, published 2026)
